Test results reported in patent US8013137B2, “Modified enteropeptidase protein” (National University Corporation Hokkaido University, priority 2006, dated 2011).
Read-outs that look alike come from different tables or passages of the source. Non-standard residues stand in square brackets, D forms with d. Residues, ends and D or L forms follow the SMILES beside them. *: point of attachment. Sta = CC(C)C[C@H](N)[C@@H](O)CC(=O)O; Isovaleryl = CC(C)CC(=O)*

What was measured:
medaka EP-1 protease = experiment: Inhibitor assay, enzyme activity measured using GD4K-βNA as a substrate; type: biochemical, medaka (Oryzias latipes)
medaka EP-2 protease = experiment: as above; type: biochemical, medaka (Oryzias latipes)
[1] = target: T1, medaka EP-1 enteropeptidase serine protease domain, wild type, SEQ ID NO: 2 (Oryzias latipes, UniProt A4UWM5); experiment: Inhibitor assay, EP-1 protease activity on GD4K-βNA; type: biochemical, Japanese Medaka (Oryzias latipes); conditions: pH 7.4
T1 sequence (A4UWM5 795-1036): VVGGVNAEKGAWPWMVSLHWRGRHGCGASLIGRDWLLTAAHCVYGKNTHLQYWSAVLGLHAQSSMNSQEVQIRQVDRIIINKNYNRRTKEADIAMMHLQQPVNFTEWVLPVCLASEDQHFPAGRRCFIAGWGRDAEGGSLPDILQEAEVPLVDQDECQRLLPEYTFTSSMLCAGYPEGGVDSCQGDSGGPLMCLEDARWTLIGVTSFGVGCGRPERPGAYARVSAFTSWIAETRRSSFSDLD

[2] = target: medaka EP-2 enteropeptidase serine protease domain, wild type (EP-2, SEQ ID NO: 72) (Oryzias latipes, UniProt A4UWM6); experiment: Inhibitor assay, EP-2 protease activity on GD4K-βNA; type: biochemical, Japanese Medaka (Oryzias latipes); conditions: pH 7.4
[3] = inhibitor 1.0 mM, GD4K-βNA substrate, 10 min preincubation
[4] = 0.2 mM inhibitor, GD4K-βNA substrate, 10 min preincubation
[5] = inhibitor 0.1 mM, GD4K-βNA substrate, 10 min preincubation
[6] = inhibitor 0.01 mg/ml, GD4K-βNA substrate, 10 min preincubation

Chain of medaka EP-2 enteropeptidase serine protease domain, wild type (EP-2, SEQ ID NO: 72) (A4UWM6 802-1043): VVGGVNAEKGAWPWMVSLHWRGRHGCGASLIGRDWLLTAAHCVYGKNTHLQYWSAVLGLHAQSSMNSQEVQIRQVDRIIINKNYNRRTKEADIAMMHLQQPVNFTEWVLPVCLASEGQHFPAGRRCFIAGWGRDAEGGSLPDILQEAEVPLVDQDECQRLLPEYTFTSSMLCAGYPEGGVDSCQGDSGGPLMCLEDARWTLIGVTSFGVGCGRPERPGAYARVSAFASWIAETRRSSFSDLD

N=C(N)c1ccccc1 [Benzamidine]
Inhibition (%) EP-1 (medaka EP-1 protease; [3]): 79%
Inhibition (%) EP-2 (medaka EP-2 protease; [3]): 78%

CC(C)C[C@H](NC(=O)[C@@H](NC(=O)N[C@@H](Cc1ccccc1)C(=O)O)[C@@H]1CCN=C(N)N1)C(=O)N[C@H](C=O)Cc1ccccc1 [Chymostatin]
Inhibition (%) EP-1 (medaka EP-1 protease): 0%
Inhibition (%) EP-2 (medaka EP-2 protease): 0%

CC(C)C[C@H](NC(=O)[C@H]1O[C@@H]1C(=O)O)C(=O)NCCCCN=C(N)N [E-64]
inhibition at 200 µM [1, 4]: 0%
inhibition at 200 µM [2, 4]: 0%

O=C(O)CN(CCN(CC(=O)O)CC(=O)O)CC(=O)O [EDTA]
inhibition at 5000 µM [1]: 5%
inhibition at 5000 µM [2]: 10%

CC(=O)N[C@@H](CC(C)C)C(=O)N[C@@H](CC(C)C)C(=O)N[C@H](C=O)CCCNC(=N)N [Leupeptin]
Inhibition (%) EP-1 (medaka EP-1 protease): 43%
Inhibition (%) EP-2 (medaka EP-2 protease): 47%

CC(C)CC(=O)N[C@H](C(=O)N[C@H](C(=O)N[C@@H](CC(C)C)[C@@H](O)CC(=O)N[C@@H](C)C(=O)N[C@@H](CC(C)C)[C@@H](O)CC(=O)O)C(C)C)C(C)C [Pepstatin] (Isovaleryl-VV[Sta]A[Sta]-OH)
Inhibition (%) EP-1 (medaka EP-1 protease; [5]): 0%
Inhibition (%) EP-2 (medaka EP-2 protease; [5]): 3%

Aprotinin
Inhibition (%) EP-1 (medaka EP-1 protease; [6]): 0%
Inhibition (%) EP-2 (medaka EP-2 protease; [6]): 5%
